Data set [1] relates to sulfonylurea receptor in trabecular meshwork cells. Description: 3H-glibenclamide binding and displacement, bovine trabecular meshwork cells. Conditions: bovine TM cells, compared with RIN-m5F cells. The procedure:
FIG. 1 depicts, in accordance with embodiments herein, binding of ^3H-glibenclamide to bovine trabecular meshwork cells (2.5×10^5 per 0.5 ml of reaction mixture) at various concentrations of ligand. Red: non-specific binding; green: specific binding. Shown is mean±SD.
FIG. 2 depicts, in accordance with embodiments herein, displacement of ^3H-glibenclamide bound to trabecular meshwork cells (green) and RIN-m5F cells (red) by tolbutamide.
Non-specific binding was determined as the residual binding in the presence of 20 μM non-labeled glibenclamide. After 2 hrs incubation, ^3H-bound glibenclamide was separated from free ^3H-glibenclamide on Whatman GF/F filters soaked in incubation buffer. Specific binding as calculated as the difference between binding in the absence and presence of non-labeled […] glibenclamide (FIG. 1).

In the next data set the test system is patients. Description: Adverse ocular effects of tolbutamide eye drops.

Excerpt for patients: Specifically, patients were monitored for discomfort, ocular pain, tearing, photophobia, erythema, swelling, discharge and scaling, palpebral conjunctival inflammation, bulbar conjunctival inflammation; limbal inflammation, corneal epithelial changes and focal stromal infiltrates. Symptoms were classified as 0=normal; 1=mild; 2=moderate; and 3=severe.

Consider `CCCCNC(=O)NS(=O)(=O)c1ccc(C)cc1` [Tolbutamide, tolbutamide], for which the “kinetics of displacement of 3H-glibenclamide by tolbutamide” value in data set [1] is on record as “same kinetics”. Besides, the “severe symptoms of ocular toxicity” value in the data set with patients (all patients, any time during the study) is listed as “free of severe symptoms”. Also, the “symptoms of ocular toxicity, classification” value with patients (drops to the eye, all cases) is given as 0-1.
